The text below walks through data of ChEMBL document CHEMBL4602715, “Efficacy and Tolerability of Pyrazolo[1,5-a]pyrimidine RET Kinase Inhibitors for the Treatment of Lung Adenocarcinoma” (ACS Med Chem Lett, 2020).

Values after ≈ are worked out from the molar mass of the structure shown. Active and inactive are the calls of the source. No cut-off for these calls is given here.

Data set [1] relates to Rattus norvegicus. Put plainly: Antitumor activity against rat RIE cells transfected with KIF5B/RET xenografted in Harlan Foxn1 nude mouse assessed as tumor growth inhibition at 1 mg/kg, po qd for 10 days. It is filed as functional, organism-based.
In data set [2] the test system is Mus musculus. In words: In vivo inhibition of KIF5B/RET transfected in rat RIE cells xenografted in Harlan Foxn1 nude mouse assessed as reduction in intratumoral RET phosphorylation at 1 to 3 mg/kg, po qd for 10 days and measured after 5 hrs post-last dose by Western blot analysis. In kind it is functional, organism-based. On the technique in general: A western blot detects proteins with antibodies after separation by electrophoresis.

The subject of data set [3] is Mus musculus. Put plainly: In vivo inhibition of KIF5B/RET transfected in rat RIE cells xenografted in Harlan Foxn1 nude mouse assessed as reduction in intratumoral RET phosphorylation at 1 to 3 mg/kg, po qd for 10 days and measured after 24 hrs post-last dose by Western blot analysis. It is filed as functional, organism-based.
For data set [4], the system named is Rattus norvegicus. In words: Antitumor activity against rat RIE cells transfected with KIF5B/RET xenografted in Harlan Foxn1 nude mouse assessed as tumor stasis at 3 mg/kg, po qd for 10 days. In kind it is functional, organism-based.
Data set [5] deals with Rattus norvegicus. Put plainly: Antitumor activity against rat RIE cells transfected with KIF5B/RET xenografted in Harlan Foxn1 nude mouse assessed as reduction in visible vasculature at 10 to 60 mg/kg, po qd for 14 days. It is filed as functional, organism-based.
In data set [6] the test system is Rattus norvegicus. In words: Antitumor activity against rat RIE cells transfected with KIF5B/RET xenografted in Harlan Foxn1 nude mouse assessed as tumor regression at 10 to 60 mg/kg, po qd for 14 days. In kind it is functional, organism-based.
Data set [7] has as its system LC-2-ad. In words: Antitumor activity against human LC2/ad cells xenografted in NSG mouse assessed as reduction in tumor volume at 10 mg/kg, po qd for 21 days measured following cessation of drug treatment. It is filed as functional, organism-based. In general terms: In xenograft studies the graft and the host belong to different species.
Data set [8] has as its system Rattus norvegicus. Put plainly: Antitumor activity against rat RIE cells transfected with KIF5B/RET xenografted in Harlan Foxn1 nude mouse assessed as tumor regression at 10 mg/kg, po qd for 10 days. It is filed as functional, organism-based.
For data set [9], the system named is LC-2-ad. Put plainly: Cytotoxicity against human LC2/ad cells assessed as reduction in cell viability incubated for 6 days by CellTiter Glo assay. In kind it is cell-based. As to conditions: 144 h. For orientation: ATP-based viability assays read luminescence as a measure of living cells.
Another data set concerns the target Bcr/Abl fusion protein (Homo sapiens, UniProt P00519). Put plainly: Inhibition of BCR/ABL (unknown origin) transfected in mouse Ba/F3 cells assessed as reduction in cell viability incubated for 48 hrs by brightglo-luciferase reporter gene assay. In kind it is cell-based, BaF3.
For another data set, the system named is BaF3. In words: Cytotoxicity against mouse BA/F3 cells assessed as reduction in cell viability incubated for 48 hrs by brightglo-luciferase reporter gene assay. The note with it: BaF3, 48 h. It is filed as cell-based.
Data set [10] in a line: Aqueous solubility of compound at pH 6.8 incubated for 24 hrs by HPLC/UV analysis. In kind it is physicochemical.
Data set [11] can be described thus: Toxicity in CD-1 mouse assessed as changes in lung at 10 mg/kg, po qd for 4 weeks by histopathological analysis. In kind it is organism-based. As to conditions: in vivo, 672 h.
A short description of data set [12]: Toxicity in CD-1 mouse assessed as neuronal changes in brain at 10 mg/kg, po qd for 4 weeks by histopathological analysis. It is filed as organism-based. As to conditions: in vivo, 672 h.
Data set [13] is described as follows: Clearance in BALB/c mouse at 5 mg/kg, iv measured upto 24 hrs by LC-MS/MS analysis. It is filed as ADME, organism-based. The note with it: in vivo.
The nature of data set [14]: Toxicity in CD-1 mouse assessed as marginal zone depletion in spleen at 10 mg/kg, po qd for 4 weeks by histopathological analysis. It is filed as organism-based. As to conditions: in vivo, 672 h.
The nature of data set [15]: Toxicity in CD-1 mouse assessed as changes in GI neurons at 10 mg/kg, po qd for 4 weeks by histopathological analysis. In kind it is organism-based. The note with it: in vivo, 672 h.
Data set [16] is described as follows: Toxicity in CD-1 mouse assessed as decrease in germinal centre cellularity in lymph nodes at 10 mg/kg, po qd for 4 weeks by histopathological analysis. In kind it is organism-based. The note with it: in vivo, 672 h.
Data set [17] in a line: Cmax in BALB/c mouse at 5 mg/kg, iv measured upto 24 hrs by LC-MS/MS analysis. In kind it is ADME, organism-based. More on the design: dose 5 mg/kg, route intravenous. The note with it: in vivo.
Data set [18] can be described thus: Toxicity in CD-1 mouse assessed as pancreatic vacuolation at 10 mg/kg, po qd for 4 weeks by histopathological analysis. As to conditions: in vivo, 672 h. It is filed as organism-based.
Data set [19] in a line: Half life in BALB/c mouse at 5 mg/kg, iv measured upto 24 hrs by LC-MS/MS analysis. In kind it is ADME, organism-based. As to conditions: in vivo.
The nature of data set [20]: Volume of distribution at steady state in BALB/c mouse at 5 mg/kg, iv measured upto 24 hrs by LC-MS/MS analysis. The note with it: in vivo, read-out: Vdss. In kind it is ADME, organism-based.
Data set [21] is described as follows: AUC in BALB/c mouse at 5 mg/kg, iv measured upto 24 hrs by LC-MS/MS analysis. It is filed as ADME, organism-based. More on the design: dose 5 mg/kg, time < 24 hr, route intravenous. The note with it: in vivo.
Data set [22] can be described thus: Toxicity in Harlan Foxn1 nude mouse xenografted with rat RIE cells transfected with KIF5B/RET assessed as lungs hemorrhaging at 3 mg/kg, po administered bid for 8 days. It is filed as organism-based. The note with it: in vivo, 192 h.
A short description of data set [23]: Oral bioavailability in BALB/c mouse at 10 mg/kg measured upto 24 hrs by LC-MS/MS analysis. As to conditions: in vivo. In kind it is ADME, organism-based.
The nature of data set [24]: Half life in BALB/c mouse at 10 mg/kg, po measured upto 24 hrs by LC-MS/MS analysis. In kind it is ADME, organism-based. As to conditions: in vivo.
The nature of data set [25]: Half life in BALB/c mouse at 2 mg/kg, iv measured upto 24 hrs by LC-MS/MS analysis. As to conditions: in vivo. It is filed as ADME, organism-based.
Data set [26] can be described thus: Toxicity in Harlan Foxn1 nude mouse xenografted with rat RIE cells transfected with KIF5B/RET assessed as hypothermia at 3 mg/kg, po administered bid for 8 days. In kind it is organism-based. As to conditions: in vivo, 192 h.
Data set [27] can be described thus: Volume of distribution at steady state in BALB/c mouse at 2 mg/kg, iv measured upto 24 hrs by LC-MS/MS analysis. It is filed as ADME, organism-based. As to conditions: in vivo, read-out: Vdss.
A short description of data set [28]: Clearance in BALB/c mouse at 2 mg/kg, iv measured upto 24 hrs by LC-MS/MS analysis. It is filed as ADME, organism-based. The note with it: in vivo.
In data set [29] the target is T1, Voltage-gated inwardly rectifying potassium channel KCNH2 (Homo sapiens, UniProt Q12809). In words: Inhibition of human ERG expressed in human embryonic kidney cells by manual patch clamp assay. In kind it is cell-based.
Data set [30] in a line: Toxicity in Harlan Foxn1 nude mouse xenografted with rat RIE cells transfected with KIF5B/RET assessed as lungs hemorrhaging at 10 to 60 mg/kg, po administered bid for 8 days. It is filed as organism-based. As to conditions: in vivo, 192 h.
The nature of data set [31]: Cmax in BALB/c mouse at 2 mg/kg, iv measured upto 24 hrs by LC-MS/MS analysis. It is filed as ADME, organism-based. More on the design: dose 2 mg/kg, route intravenous. As to conditions: in vivo.
Data set [32] in a line: AUC in BALB/c mouse at 2 mg/kg, iv measured upto 24 hrs by LC-MS/MS analysis. Details: dose 2 mg/kg, time < 24 hr, route intravenous. The note with it: in vivo. In kind it is ADME, organism-based.
The nature of data set [33]: Toxicity in Harlan Foxn1 nude mouse xenografted with rat RIE cells transfected with KIF5B/RET assessed as hypothermia at 10 to 60 mg/kg, po administered bid for 8 days. In kind it is organism-based. The note with it: in vivo, 192 h.
Data set [34] can be described thus: AUC in BALB/c mouse at 10 mg/kg, po measured upto 24 hrs by LC-MS/MS analysis. In kind it is ADME, organism-based. More on the design: dose 10 mg/kg, time < 24 hr, route oral. As to conditions: in vivo.
A short description of data set [35]: Cmax in BALB/c mouse at 10 mg/kg, po measured upto 24 hrs by LC-MS/MS analysis. In kind it is ADME, organism-based. More on the design: dose 10 mg/kg, route oral. The note with it: in vivo.
Data set [36] concerns the target T1, Voltage-gated inwardly rectifying potassium channel KCNH2. In words: Displacement of [3H]-dofetilide from human ERG expressed in CHO cells incubated for 90 mins by microbeta scintillation counting method. It is filed as cell-based.

T1 sequence (Q12809 whole entry): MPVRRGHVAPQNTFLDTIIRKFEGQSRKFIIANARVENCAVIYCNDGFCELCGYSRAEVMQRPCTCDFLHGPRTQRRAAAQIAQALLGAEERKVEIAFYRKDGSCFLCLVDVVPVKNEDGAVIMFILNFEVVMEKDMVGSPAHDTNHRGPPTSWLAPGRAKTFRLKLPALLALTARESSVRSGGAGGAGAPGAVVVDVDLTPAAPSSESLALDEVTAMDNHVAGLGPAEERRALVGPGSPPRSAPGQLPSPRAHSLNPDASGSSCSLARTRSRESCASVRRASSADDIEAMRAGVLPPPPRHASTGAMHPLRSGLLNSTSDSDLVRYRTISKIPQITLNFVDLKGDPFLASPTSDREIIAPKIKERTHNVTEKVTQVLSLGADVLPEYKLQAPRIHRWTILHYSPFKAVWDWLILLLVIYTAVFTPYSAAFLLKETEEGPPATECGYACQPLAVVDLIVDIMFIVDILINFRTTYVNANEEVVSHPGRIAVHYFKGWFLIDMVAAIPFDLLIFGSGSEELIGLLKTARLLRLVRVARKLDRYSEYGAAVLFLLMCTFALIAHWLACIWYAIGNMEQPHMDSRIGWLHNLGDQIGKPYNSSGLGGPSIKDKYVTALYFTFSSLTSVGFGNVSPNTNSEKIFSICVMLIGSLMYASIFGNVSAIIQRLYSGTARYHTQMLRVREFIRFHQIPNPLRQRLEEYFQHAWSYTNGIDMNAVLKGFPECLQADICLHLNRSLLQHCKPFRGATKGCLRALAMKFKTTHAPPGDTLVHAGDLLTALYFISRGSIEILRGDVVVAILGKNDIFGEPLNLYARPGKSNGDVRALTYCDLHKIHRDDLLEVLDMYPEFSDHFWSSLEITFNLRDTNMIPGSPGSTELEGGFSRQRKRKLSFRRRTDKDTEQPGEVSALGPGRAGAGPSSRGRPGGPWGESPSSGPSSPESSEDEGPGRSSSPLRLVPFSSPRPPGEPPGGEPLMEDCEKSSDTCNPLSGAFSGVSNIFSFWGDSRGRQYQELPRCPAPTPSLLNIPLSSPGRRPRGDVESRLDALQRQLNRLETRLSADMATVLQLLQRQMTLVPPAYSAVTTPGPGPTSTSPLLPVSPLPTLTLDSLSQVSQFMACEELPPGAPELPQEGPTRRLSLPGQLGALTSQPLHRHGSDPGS
Sequence of Bcr/Abl fusion protein (P00519 whole entry, the tested form may be a part): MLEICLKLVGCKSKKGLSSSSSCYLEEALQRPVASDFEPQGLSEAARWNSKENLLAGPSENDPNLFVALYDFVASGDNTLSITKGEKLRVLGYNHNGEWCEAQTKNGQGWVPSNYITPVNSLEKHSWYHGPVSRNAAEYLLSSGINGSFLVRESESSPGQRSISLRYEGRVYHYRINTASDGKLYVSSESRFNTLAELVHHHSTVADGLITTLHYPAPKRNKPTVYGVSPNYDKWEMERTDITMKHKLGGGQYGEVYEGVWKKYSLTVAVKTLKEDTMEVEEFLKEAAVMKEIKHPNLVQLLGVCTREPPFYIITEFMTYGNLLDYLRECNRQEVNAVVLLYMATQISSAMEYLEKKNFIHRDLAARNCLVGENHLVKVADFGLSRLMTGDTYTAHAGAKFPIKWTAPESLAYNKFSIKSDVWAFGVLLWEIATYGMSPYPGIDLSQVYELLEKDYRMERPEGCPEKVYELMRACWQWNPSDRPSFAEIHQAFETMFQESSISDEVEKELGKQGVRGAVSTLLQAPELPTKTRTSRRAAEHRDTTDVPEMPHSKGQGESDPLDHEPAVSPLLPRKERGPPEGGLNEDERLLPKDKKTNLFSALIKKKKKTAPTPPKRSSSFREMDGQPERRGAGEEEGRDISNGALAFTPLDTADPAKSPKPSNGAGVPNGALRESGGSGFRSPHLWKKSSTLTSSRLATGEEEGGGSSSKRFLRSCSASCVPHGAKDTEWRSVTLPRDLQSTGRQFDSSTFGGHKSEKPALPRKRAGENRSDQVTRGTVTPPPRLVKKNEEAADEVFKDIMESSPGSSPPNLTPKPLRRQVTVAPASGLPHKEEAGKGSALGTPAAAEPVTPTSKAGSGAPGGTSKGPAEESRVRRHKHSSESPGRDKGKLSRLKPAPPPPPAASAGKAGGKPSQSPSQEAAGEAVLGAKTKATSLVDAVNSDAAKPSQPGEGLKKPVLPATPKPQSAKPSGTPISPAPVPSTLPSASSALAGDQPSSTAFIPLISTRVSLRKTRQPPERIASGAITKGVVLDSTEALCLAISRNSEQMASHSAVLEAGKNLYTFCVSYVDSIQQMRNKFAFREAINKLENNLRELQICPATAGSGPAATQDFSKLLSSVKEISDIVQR
Sequence of Bcr/Abl fusion protein (P11274 whole entry, further chain, the tested form may be a part): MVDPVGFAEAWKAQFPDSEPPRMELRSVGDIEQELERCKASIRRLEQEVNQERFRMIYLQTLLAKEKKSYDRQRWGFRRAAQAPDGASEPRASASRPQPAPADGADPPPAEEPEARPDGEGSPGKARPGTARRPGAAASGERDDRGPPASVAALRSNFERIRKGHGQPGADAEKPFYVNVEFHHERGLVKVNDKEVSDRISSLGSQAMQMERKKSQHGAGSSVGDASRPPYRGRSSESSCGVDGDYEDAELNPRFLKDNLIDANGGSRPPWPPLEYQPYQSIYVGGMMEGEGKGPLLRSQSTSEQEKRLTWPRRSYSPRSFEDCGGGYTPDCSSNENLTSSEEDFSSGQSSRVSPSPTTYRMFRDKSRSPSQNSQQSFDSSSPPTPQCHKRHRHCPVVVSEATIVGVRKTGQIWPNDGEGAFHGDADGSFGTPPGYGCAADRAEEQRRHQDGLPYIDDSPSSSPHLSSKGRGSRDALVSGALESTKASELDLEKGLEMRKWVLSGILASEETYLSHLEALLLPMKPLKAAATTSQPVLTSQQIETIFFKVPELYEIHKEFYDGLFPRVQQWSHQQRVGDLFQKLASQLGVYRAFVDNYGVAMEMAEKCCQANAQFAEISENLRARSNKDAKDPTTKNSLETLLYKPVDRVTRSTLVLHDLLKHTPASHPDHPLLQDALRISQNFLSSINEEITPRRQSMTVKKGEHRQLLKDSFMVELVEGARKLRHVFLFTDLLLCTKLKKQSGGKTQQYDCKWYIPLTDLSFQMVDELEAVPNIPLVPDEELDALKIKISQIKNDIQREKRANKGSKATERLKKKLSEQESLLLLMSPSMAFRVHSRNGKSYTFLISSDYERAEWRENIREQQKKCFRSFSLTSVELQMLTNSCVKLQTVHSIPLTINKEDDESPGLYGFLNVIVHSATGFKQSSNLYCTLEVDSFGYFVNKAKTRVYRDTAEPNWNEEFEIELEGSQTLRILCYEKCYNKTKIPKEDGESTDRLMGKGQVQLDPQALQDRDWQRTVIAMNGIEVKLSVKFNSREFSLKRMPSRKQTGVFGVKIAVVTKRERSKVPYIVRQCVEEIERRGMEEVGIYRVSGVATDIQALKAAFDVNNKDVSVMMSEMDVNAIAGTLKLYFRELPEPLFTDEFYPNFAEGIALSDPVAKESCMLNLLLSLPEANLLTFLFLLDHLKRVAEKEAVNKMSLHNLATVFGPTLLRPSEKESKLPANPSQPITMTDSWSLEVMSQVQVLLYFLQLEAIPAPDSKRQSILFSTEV

On to `COc1ccc(-c2cnn3c(N)c(-c4ccccc4)c(NC4CC(C)(C)N(C)C(C)(C)C4)nc23)cc1OC` [listing 1 of 2 here], for which the outcome in the data set with Rattus norvegicus [1], with Rattus norvegicus [4], with Rattus norvegicus [5], with Rattus norvegicus [6], with LC-2-ad [7] and in the data set with Rattus norvegicus [8] was Active. Further, the inhibition result in the data set on Mus musculus [2] was “Active”. Moreover, the inhibition entry in the data set with Mus musculus [3] is “inactive”.
For orientation: IC50 means the midpoint of a concentration-inhibition curve. A word on the solubility: it is the dissolved amount per volume that the medium holds. A lower solubility goes with little dissolved substance. Turning to `COc1ccc(-c2cnn3c(N)c(-c4ccccc4)c(OC4CCN(C)CC4)nc23)cc1OC`, the IC50 was 1600 nM in the data set on LC-2-ad [9], 870 nM at Bcr/Abl fusion protein and > 11000 nM in the data set with BaF3. Further, in data set [10], the concentration in solution (solubility at 24 h) was 7.1 µM (≈ 3.26 µg/mL).
Regarding `COc1ccc(-c2cnn3c(N)c(-c4ccccc4)c(OC4CCNCC4)nc23)cc1OC`, the IC50 in the data set with LC-2-ad [9] came out at 2700 nM. In addition, the solubility at 24 h in [10] is 47 µM (≈ 20.9 µg/mL).
Broadly, the clearance is the rate of elimination divided by the concentration. One may read the Cmax as the highest concentration seen after dosing. The half-life is the time in which the quantity being followed falls by half. A higher half-life goes with slow decline. One may read the AUC as concentration integrated over time. With `COc1ccc(-c2cnn3c(N)c(-c4ccccc4)c(NC4CC(C)(C)N(C)C(C)(C)C4)nc23)cc1OC` [listing 2 of 2 here], the Activity result in data set [11] is “Non-Toxic”; in data set [12], “Non-Toxic”; in [14], “Toxic”; in [15], “Non-Toxic”; in data set [16], “Toxic”; in data set [18], “Toxic”. Further, the clearance in data set [13] is 51 mL/min/kg. Further, the IC50 in the data set on LC-2-ad [9] stood at 1500 nM. This molecule also showed a Cmax in data set [17] of 1100 nM. The same molecule gave a half-life in data set [19] of 3.9 h. Besides, in data set [20], the Vd worked out at 13 L/kg. The same molecule registered a solubility at 24 h in [10] of 48 µM (≈ 24.7 µg/mL). In data set [21], this molecule showed an AUC at 24 h of 3.2 µM·h.
For orientation: bioavailability means the share of a dose that reaches the circulation, judged against a reference dose that is usually intravenous. Read a high bioavailability as much systemic uptake. Turning to `COC(=O)N1CCN(C(=O)c2ccc(-c3cnn4c(N)c(-c5ccccc5)c(NC5CC(C)(C)N(C)C(C)(C)C5)nc34)cc2)CC1`, the Activity result in data set [22] was “Non-Toxic”; in data set [26], “Non-Toxic”; in data set [30], “Toxic”; in [33], “Toxic”. In data set [23], this molecule had a bioavailability of 62%. In addition, the half-inhibitory concentration (IC50) with LC-2-ad [9] is 1300 nM; in data set [29], “Not Active”; in data set [36], 7500 nM. The half-life in [24] and in [25] was 3.7 h in each case. In addition, the Vd in data set [27] came to 5.1 L/kg. This molecule came in with a clearance in [28] of 19 mL/min/kg. The peak concentration (Cmax) in [31] came to 940 nM; in data set [35], 820 nM. Besides, the AUC at 24 h in data set [32] is 2.8 µM·h; in data set [34], 8.7 µM·h.
`COc1ccc(-c2cnn3c(N)c(-c4ccccc4)c(OCCCN(C)C)nc23)cc1OC`: the IC50 in the data set with LC-2-ad [9] came to 2800 nM. In data set [10], the solubility at 24 h is 88 µM (≈ 39.4 µg/mL).
